The results in this text go back to patent US9505749B2, “Quinazolinone compounds and derivatives thereof” (AMGEN INC., priority 2012, dated 2016).

Test [1] deals with 6×HIS-tankyrase1 (1091-1325) (Homo sapiens (Human), UniProt O95271). Briefly: Tankyrase 1 biochemical assay (AlphaLisa, PARsylation). The following applies: 400 nM NAD, 60 minutes at RT; read-out: TNKS1 IC50. For orientation: Alpha assays give light when donor and acceptor beads are brought close together.
Another test has as its target PARP1 (Homo sapiens (Human), UniProt P09874). Description: PARP1 biochemical assay (Trevigen kit). An excerpt: PARP1 biochemical assay was purchased as a kit from Trevigen (cat.#4676-096-K) and used per manufacturers recommendations.
Test [2] concerns Axin2 accumulation in SW480 cells. Briefly: Axin2 384 immunofluorescence assay. Format: cell-based. The note with it: Homo sapiens; SW480 cells, 24 hours; read-out: Axin2 384 IF EC50.
Test [3] relates to total β-catenin in SW480 colorectal cells. Description: Total β-catenin MSD 96-well plate assay for SW480 cells. The note with it: Homo sapiens, SW480, read-out: SW480-Total beta-catenin (TBC) IC50 IP.
The target in test [4] is 6×HIS-tankyrase 2 (946-1162) (Homo sapiens (Human), UniProt Q9H2K2). Description: Tankyrase 2 biochemical assay (AlphaLisa, PARsylation). The following applies: 250 nM NAD; read-out: TNKS2 IC50.
Sequence of 6×HIS-tankyrase 2 (946-1162) (Q9H2K2 946-1162): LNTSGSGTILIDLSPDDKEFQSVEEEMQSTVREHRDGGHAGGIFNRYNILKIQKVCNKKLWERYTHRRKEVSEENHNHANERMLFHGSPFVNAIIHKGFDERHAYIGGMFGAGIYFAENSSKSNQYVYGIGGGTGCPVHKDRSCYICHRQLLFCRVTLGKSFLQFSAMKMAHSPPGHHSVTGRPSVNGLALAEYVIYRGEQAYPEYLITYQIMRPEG
A further test deals with PARP2 (Homo sapiens (Human), UniProt Q9UGN5). Briefly: PARP2 biochemical assay (BPS kit).
Sequence of PARP2 (Q9UGN5 whole entry): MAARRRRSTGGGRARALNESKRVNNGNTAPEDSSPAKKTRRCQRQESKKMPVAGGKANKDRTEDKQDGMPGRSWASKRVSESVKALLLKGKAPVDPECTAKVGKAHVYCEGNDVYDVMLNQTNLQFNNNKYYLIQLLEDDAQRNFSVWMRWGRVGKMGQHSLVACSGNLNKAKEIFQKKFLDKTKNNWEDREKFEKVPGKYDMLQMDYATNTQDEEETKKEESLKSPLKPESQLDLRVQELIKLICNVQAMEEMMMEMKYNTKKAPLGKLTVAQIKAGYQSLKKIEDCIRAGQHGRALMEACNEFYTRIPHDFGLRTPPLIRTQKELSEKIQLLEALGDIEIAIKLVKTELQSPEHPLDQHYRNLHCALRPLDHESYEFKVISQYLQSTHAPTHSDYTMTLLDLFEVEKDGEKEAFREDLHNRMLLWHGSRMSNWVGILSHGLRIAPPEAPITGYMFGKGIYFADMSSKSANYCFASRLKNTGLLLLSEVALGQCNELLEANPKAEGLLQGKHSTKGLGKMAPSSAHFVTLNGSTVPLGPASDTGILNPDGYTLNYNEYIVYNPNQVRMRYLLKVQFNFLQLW

SMILES strings stand for the structures.

Sequence of PARP1 (P09874 whole entry): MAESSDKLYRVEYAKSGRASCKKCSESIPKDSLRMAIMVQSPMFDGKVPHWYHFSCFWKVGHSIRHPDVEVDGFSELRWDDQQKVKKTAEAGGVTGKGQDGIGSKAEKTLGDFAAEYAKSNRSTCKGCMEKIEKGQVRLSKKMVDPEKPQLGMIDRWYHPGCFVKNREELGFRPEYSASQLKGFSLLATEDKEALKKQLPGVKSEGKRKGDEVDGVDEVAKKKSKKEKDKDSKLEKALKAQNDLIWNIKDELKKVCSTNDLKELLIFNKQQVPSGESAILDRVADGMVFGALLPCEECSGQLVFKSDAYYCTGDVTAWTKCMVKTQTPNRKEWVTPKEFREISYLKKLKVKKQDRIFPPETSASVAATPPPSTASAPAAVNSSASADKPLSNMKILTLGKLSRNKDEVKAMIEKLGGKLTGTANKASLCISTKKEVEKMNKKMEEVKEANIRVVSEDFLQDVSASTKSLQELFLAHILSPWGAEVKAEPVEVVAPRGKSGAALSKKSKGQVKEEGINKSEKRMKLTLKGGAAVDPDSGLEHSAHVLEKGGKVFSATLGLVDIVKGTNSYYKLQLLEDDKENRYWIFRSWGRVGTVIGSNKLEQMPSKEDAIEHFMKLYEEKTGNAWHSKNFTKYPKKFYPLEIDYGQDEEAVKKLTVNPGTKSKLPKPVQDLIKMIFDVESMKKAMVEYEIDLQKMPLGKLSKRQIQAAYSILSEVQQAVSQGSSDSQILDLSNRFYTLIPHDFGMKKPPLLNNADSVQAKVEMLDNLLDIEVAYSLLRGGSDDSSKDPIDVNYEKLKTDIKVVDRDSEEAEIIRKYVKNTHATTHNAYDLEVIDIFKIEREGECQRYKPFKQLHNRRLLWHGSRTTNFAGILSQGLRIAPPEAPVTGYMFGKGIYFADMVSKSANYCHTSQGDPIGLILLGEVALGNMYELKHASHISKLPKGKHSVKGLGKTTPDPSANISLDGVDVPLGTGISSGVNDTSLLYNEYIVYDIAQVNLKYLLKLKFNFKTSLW
Sequence of 6×HIS-tankyrase1 (1091-1325) (O95271 1091-1325): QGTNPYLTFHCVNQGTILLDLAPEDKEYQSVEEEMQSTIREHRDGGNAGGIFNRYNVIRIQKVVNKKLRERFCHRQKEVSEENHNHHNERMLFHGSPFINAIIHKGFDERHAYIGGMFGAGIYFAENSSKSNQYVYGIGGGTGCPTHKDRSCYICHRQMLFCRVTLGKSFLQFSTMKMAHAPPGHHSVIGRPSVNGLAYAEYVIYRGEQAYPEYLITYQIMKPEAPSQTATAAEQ

Turning to `N#Cc1ccc(O[C@H]2CC[C@H](NC(=O)CCCc3nc4ccccc4c(=O)[nH]3)CC2)cc1` [Example 78, N-(trans-4-(4-cyanophenoxy)cyclohexyl)-4-(4-oxo-3,4-dihydro-2-quinazolinyl)butanamide], the half-maximal inhibitory concentration (IC50) (commonly the concentration at which inhibition is half-maximal) was found to be 2.23 nM in test [1]; 558 nM against PARP1; 7.14 nM in test [3]; 0.434 nM in test [4]; 246 nM against PARP2. The EC50 (in general, the concentration giving half of the maximal effect) in test [2] is 49.2 nM.
As to `O=C(CCCc1nc2ccccc2c(=O)[nH]1)N[C@H]1CC[C@H](Oc2ccc(Cl)cc2)CC1` [Example 79, N-(trans-4-(4-chlorophenoxy)cyclohexyl)-4-(4-oxo-3,4-dihydro-2-quinazolinyl)butanamide], the IC50 in test [1] amounted to 2.85 nM; against PARP1 it was 2550 nM; in test [3], 42.3 nM; in test [4] it was 0.614 nM; against PARP2 it was 292 nM. Also, the EC50 in test [2] is 192 nM.
On to `O=C(CCSc1nc2ccccc2c(=O)[nH]1)N1CCC(c2nnc(-c3ccccc3)o2)CC1` [Example 83, 2-((3-oxo-3-(4-(5-phenyl-1,3,4-oxadiazol-2-yl)piperidin-1-yl)propyl)thio)quinazolin-4(3H)-one], for which the IC50 in test [1] turned out to be 31.4 nM; against PARP1 it was 1510 nM; in test [3], 726 nM; in test [4], 12.5 nM; against PARP2, 345 nM. Further, the EC50 in test [2] came to 2680 nM.
With `O=C(CCc1nc2ccccc2c(=O)[nH]1)N[C@H]1CC[C@H](n2c(=O)[nH]c3cc(Cl)ccc32)CC1` [Example 85, N-((1r,4r)-4-(5-chloro-2-oxo-2,3-dihydro-1H-benzo[d]imidazol-1-yl)cyclohexyl)-3-(4-oxo-3,4-dihydroquinazolin-2-yl)propanamide], the IC50 in test [1] is 0.524 nM; against PARP1 it was more than 85000 nM; in test [3], 14.1 nM; in test [4], 0.227 nM; at PARP2 it was 470 nM. The half-maximal effective concentration (EC50) in test [2] was 59.7 nM.
Regarding `O=C(CSc1nc2ccccc2c(=O)[nH]1)N1CCC(c2nnc(-c3ccccc3)o2)CC1` [Example 89, 2-((2-oxo-2-(4-(5-phenyl-1,3,4-oxadiazol-2-yl)piperidin-1-yl)ethyl)thio)quinazolin-4(3H)-one], the IC50 amounted to 16.6 nM in test [1]; 1390 nM against PARP1; 1710 nM in test [3]; 6.33 nM in test [4]; 350 nM against PARP2. In test [2], the EC50 amounted to 2330 nM.
With `Nc1cc(=O)[nH]c(SCCC(=O)N[C@H]2CC[C@H](c3nnc(-c4ccccc4)o3)CC2)n1` [Example 91, 3-((4-amino-6-oxo-1,6-dihydro-2-pyrimidinyl)sulfanyl)-N-(trans-4-(5-phenyl-1,3,4-oxadiazol-2-yl)cyclohexyl)propanamide], the IC50 is 3.97 nM in test [1]; more than 85000 nM at PARP1; 1680 nM in test [3]; 8.78 nM in test [4]; more than 170000 nM against PARP2. The EC50 in test [2] was determined as 1020 nM.
With `O=C(CCSCc1nc2ccccc2c(=O)[nH]1)N[C@H]1CC[C@H](c2nnc(-c3ccccc3)o2)CC1` [Example 92, 3-(((4-oxo-3,4-dihydro-2-quinazolinyl)methyl)sulfanyl)-N-(trans-4-(5-phenyl-1,3,4-oxadiazol-2-yl)cyclohexyl)propanamide], the IC50 in test [1] came to 15.8 nM; against PARP1, 2270 nM; in test [3] it was 145 nM; in test [4], 4.44 nM; against PARP2, 2420 nM. Moreover, the EC50 in test [2] is 287 nM.
Turning to `O=C(CCSCc1nc2ccccc2c(=O)[nH]1)N1CCC(c2nnc(-c3ccc(F)cc3)o2)CC1` [Example 93, 2-(((3-(4-(5-(4-fluorophenyl)-1,3,4-oxadiazol-2-yl)-1-piperidinyl)-3-oxopropyl)sulfanyl)methyl)-4(3H)-quinazolinone], the IC50 in test [1] is 95.2 nM; at PARP1, 8290 nM; in test [3], 1200 nM; in test [4], 85.1 nM; on PARP2, more than 170000 nM. Besides, the EC50 in test [2] is 1230 nM.
Regarding `O=C(CCc1nc2ccccc2c(=O)[nH]1)N1CCC(c2nnc(-c3ccccc3)o2)CC1` [Example 98, 2-(3-oxo-3-(4-(5-phenyl-1,3,4-oxadiazol-2-yl)piperidin-1-yl)propyl)quinazolin-4(3H)-one], the IC50 in test [1] came out at 161 nM; against PARP1 it was 3460 nM; in test [3], 2730 nM; in test [4] it was 199 nM; against PARP2, 806 nM. For the same compound, the EC50 in test [2] was found to be 3990 nM.
On to `O=C(CSc1nc2ccccc2c(=O)[nH]1)N[C@H]1CC[C@H](n2c(=O)[nH]c3ccc(Cl)cc32)CC1` [Example 102, N-((1r,4r)-4-(6-chloro-2-oxo-2,3-dihydro-1H-benzo[d]imidazol-1-yl)cyclohexyl)-2-((4-oxo-3,4-dihydroquinazolin-2-yl)thio)acetamide], for which the IC50 in test [1] is 0.118 nM; against PARP1, more than 85000 nM; in test [3], 55.4 nM; in test [4], 0.458 nM; at PARP2, 1650 nM. In test [2], the EC50 was determined as 38.1 nM.
Turning to `N#Cc1ccc2c(c1)[nH]c(=O)n2[C@H]1CC[C@H](NC(=O)CCSc2nc3ccccc3c(=O)[nH]2)CC1` [Example 104, N-((1r,4r)-4-(5-cyano-2-oxo-2,3-dihydro-1H-benzo[d]imidazol-1-yl)cyclohexyl)-3-((4-oxo-3,4-dihydroquinazolin-2-yl)thio)propanamide], the IC50 in test [1] was 0.045 nM; against PARP1, 1350 nM; in test [3], 8.42 nM; in test [4], 1.31 nM; on PARP2, 1180 nM. Further, the EC50 in test [2] is 9.45 nM.
Consider `O=C(CCCSc1nc2ccccc2c(=O)[nH]1)N1CCC(c2nnc(-c3ccccc3)o2)CC1` [Example 111, 2-((4-oxo-4-(4-(5-phenyl-1,3,4-oxadiazol-2-yl)piperidin-1-yl)butyl)thio)quinazolin-4(3H)-one], for which the IC50 in test [1] was 88.4 nM; against PARP1, 7630 nM; in test [3] it was more than 10000 nM; in test [4], 29.5 nM; against PARP2, 4670 nM. Further, the EC50 in test [2] was 2950 nM.
On to `N#Cc1ccc(O[C@H]2CC[C@H](NC(=O)CCSc3nc4c(c(=O)[nH]3)CCCC4)CC2)cc1` [Example 116, N-(trans-4-(4-cyanophenoxy)cyclohexyl)-3-((4-oxo-3,4,5,6,7,8-hexahydroquinazolin-2-yl)thio)propanamide], for which the IC50 amounted to 0.167 nM in test [1]; 2500 nM at PARP1; 3.79 nM in test [3]; 3.13 nM in test [4]; 319 nM at PARP2. For the same compound, the EC50 in test [2] amounted to 10.7 nM.
For `COc1ccc(-c2nnc([C@H]3CC[C@H](NC(=O)CCSc4nc5ccccc5c(=O)[nH]4)CC3)o2)cc1` [Example 121, N-((1r,4r)-4-(5-(4-methoxyphenyl)-1,3,4-oxadiazol-2-yl)cyclohexyl)-3-((4-oxo-3,4-dihydroquinazolin-2-yl)thio)propanamide], the half-inhibitory concentration (IC50) in test [1] is 0.0724 nM; against PARP1, 4430 nM; in test [3], 1.1 nM; in test [4] it was 18.1 nM; against PARP2, 6780 nM. The half-maximal effective concentration (EC50) in test [2] is 1.98 nM.
